This data set concerns bleomycin-induced pulmonary fibrosis.

The values below come from US10046007B2, “Compositions and methods for treatment of short telomere disorders” (PRESCIENT PHARMA LLC, priority 2015, dated 2018).

Entries after “also recorded” stand apart in the source; their conditions may differ. Read-outs that look alike come from different tables or passages of the source.

Experimental: Bleomycin solution: bleomycin (commercially available from SigmaAldrich) in PBS was used for intra-tracheal bleomycin administration. (0.04 U of bleomycin in 50 μl in PBS/mouse/per inhalation).
13 female mice (commercially available from Charles River Laboratories, BALB/C) were randomly divided into 4 groups, as follows:
Each mouse was anesthetized with 87.5 mg ketamine/kg and 12.5 mg xyline/kg cocktail 0.1 ml/20 g body weight IM. For both lithium and bleomycin intra-tracheal administration, tracheal intubation was performed using with a 23 gauge IV catheter through the mouth, followed by insertion of PE-10 tubing into the trachea. After placement of the PE-10 tubing inside the trachea, the 23 gauge iv catheter was quickly removed. Lithium or bleomycin was instilled through the PE-10 tubing. The instillation volume was 50 μl each administration for each mouse. The procedure time was around 15 minutes per mouse.
For Group 1 (n=1), no treatment was administered and the mouse was sacrificed as control.
The mice was sacrificed at 21 days after first lithium administration. The mice were sacrificed using pentobarbital 200 mg/kg ip. After the mice were sacrificed, the lungs were quickly harvested and perfused with 10% formalin buffer through the trachea. The lung tissue was then fixed in 10% formalin buffer for 3 days.
For Group 3 (n=6), the mice were pre-treated with intra-tracheal lithium instillation (0.15 mM in 50 μl saline) every other day for 3 administrations. 7 days after the final lithium pre-treatment, intra-tracheal bleomycin was instilled (0.04 U in 50 μl saline). The mice in this group were then sacrificed 14 days after bleomycin administration. The mice were sacrificed using pentobarbital 200 mg/kg ip. After the mice were sacrificed, the lungs were quickly harvested and perfused with 10% formalin buffer through the trachea. The lung tissue was then fixed in 10% formalin buffer for 3 days.
For Group 4 (n=5), only intra-tracheal bleomycin was instilled (0.04 U in 50 μl saline). The mice in this group were then sacrificed 14 days after bleomycin administration. The mice were sacrificed using pentobarbital 200 mg/kg ip. After the mice were sacrificed, the lungs were quickly harvested and perfused with 10% formalin buffer through the trachea. The lung tissue was then fixed in 10% formalin buffer for 3 days.
Following the 3 day period, macroscopical examination of the lung tissue was performed by dissection. The lung tissue were cut into 1-2 mm slices and visually inspected for areas of grey-white discoloration. […] The lung slices were then embedded in paraffin and sectioned into 5-μm-thick sections. Hematoxylin and eosin (H&E) and trichrome staining (abcam; ab150686) were performed for tissue samples from each group. The stained slides were then examined under light microscope (Olympus BX51) and photographed (Olympus DP-73 digital camera).
An Ashcroft score was then calculated for each of the group (T Ashcroft at al., Simple method of estimating severity of pulmonary fibrosis on a numerical scale. J Clin Pathol 1988; 41:467-470). The Ashcroft score provides a simple method of estimating severity of pulmonary fibrosis on a numerical scale.

With `O=C([O-])[O-].[Li+].[Li+]` [lithium carbonate], the “signs of lung tissue damage, macroscopic and microscopic (H&E, trichrome)” value was “did not show any macroscopically or microscopically sign of lung tissue damage” (Group 2: lithium inhalation only) and “did not reveal any signs macroscopically or microscopically of lung tissue damage” (Group 3: lithium pre-treatment followed by bleomycin). Also, the Ashcroft score reads like this: (Group 2: lithium inhalation only, 0.15 mM lithium carbonate 50 μl intratracheal every other day for 3 administrations, sacrificed at 21 days) 0; (Group 3: intra-tracheal lithium 0.15 mM in 50 μl every other day for 3 administrations, bleomycin 0.04 U 7 days after final lithium, sacrificed 14 days after bleomycin) 0. For the same molecule, the “pulmonary fibrosis development induced by bleomycin” value (lithium pre-treatment by inhalation, mice) was “completely abolishes”.
Consider bleomycin, for which, where the note is “Group 4: bleomycin alone”, the “macroscopic examination of lung sections (grey-white discoloration)” value is “only areas of such discoloration were found in the lung tissue of Group 4 mice; also recorded: multiple areas of grey-white discoloration mostly in peri-pleural areas” and the “microscopic examination of discoloured lung areas” value was “profound fibrotic changes”. This molecule yielded an Ashcroft score (Group 4: intra-tracheal bleomycin alone 0.04 U in 50 μl, sacrificed 14 days after bleomycin) of 4.03.
